Data set [1] deals with Mycobacterium tuberculosis (Mtb), replicating. The data set can be described thus: Minimum Inhibitory Concentration. The format is cell-based. The following applies: for Mtb MIC99 μM (±SD): replicating (aerobic) Mtb, average ± SD of multiple measurements; for MIC99: Mycobacterium tuberculosis, read-out: Mtb MIC99 μM (±SD).
Data set [2] concerns Mycobacterium tuberculosis (Mtb), non-replicating. The data set can be described thus: Minimum Anaerobicidal Concentration. As to conditions: non-replicating (anaerobic) Mtb; average ± SD of multiple measurements. It is filed as cell-based.
The nature of data set [3]: Stability in mouse liver microsomes. It is filed as in vitro ADME. As to conditions: calculated from intrinsic clearance in mouse liver microsomes, method of ref 21.
A short description of data set [4]: In vivo pharmacokinetic study, intravenous 5mg/kg. As to conditions: mice, intravenous injection at 5mg/kg.

≈ marks a conversion by molar mass, not a printed value.

For “2−((S)−2−Nitro−6,7−dihydro−5H−imidazo[2,1−b][1,3]oxazin−6−ylamino)−2−(4−trifluoromethoxyphenyl)−ethanol [Compound 17i]”, in data set [1], the “Mtb MIC99 μM (±SD)” value amounted to 0.13 ± 0.04 µM. Moreover, the “Mtb MAC μM (±SD)” value in data set [2] came to 23 ± 6 µM.

As to `O=[N+]([O-])c1cn2c(n1)OC[C@@H](NCc1ccc(OC(F)(F)F)cc1Cl)C2` [Compound 41b, (S)-N-(2-Chloro-4-trifluoromethoxybenzyl)-2-nitro-6,7-dihydro-5H-imidazo[2,1-b][1,3]oxazin-6-amine], the “Predicted hepatic extraction ratio” value in data set [3] was 75%. Further, the MIC99 in data set [1] was found to be 0.12 ± 0.05 µM (≈ 0.0471 µg/mL).

For `O=[N+]([O-])c1cn2c(n1)OC[C@@H](NCc1ccc(OC(F)(F)F)c(Oc3ccccc3)c1)C2` [Compound 56e, (S)-2-Nitro-N-(3-phenoxy-4-(trifluoromethoxy)benzyl)-6,7-dihydro-5H-imidazo[2,1-b][1,3]oxazin-6-amine], the “Predicted hepatic extraction ratio” value in data set [3] was 87%.

For the compound `CCCN(Cc1ccc(OC(F)(F)F)cc1)[C@@H]1COc2nc([N+](=O)[O-])cn2C1` [Compound 5b, (S)-2-Nitro-N-propyl-N-(4-trifluoromethoxybenzyl)-6,7-dihydro-5H-imidazo[2,1-b][1,3]oxazin-6-amine], the “Predicted hepatic extraction ratio” value in data set [3] was 95%.

Take `O=[N+]([O-])c1cn2c(n1)OC[C@@H](NCc1ccc(OC(F)(F)F)cc1OC1CC1)C2` [Compound 32f, (S)-N-(2-Cyclopropoxy-4-trifluoromethoxybenzyl)-2-nitro-6,7-dihydro-5H-imidazo[2,1-b][1,3]oxazin-6-amine]: the “Predicted hepatic extraction ratio” value in data set [3] is 87%.

As to `O=[N+]([O-])c1cn2c(n1)OC[C@@H](NCc1ccc(OC(F)(F)F)cc1OCC1CC1)C2` [Compound 32e, (S)-N-(2-Cyclopropylmethoxy-4-trifluoromethoxybenzyl)-2-nitro-6,7-dihydro-5H-imidazo[2,1-b][1,3]oxazin-6-amine], in data set [3], the “Predicted hepatic extraction ratio” value is given as 97%.

Regarding `O=[N+]([O-])c1cn2c(n1)OC[C@@H](NCc1ccc(OC(F)(F)F)c(O)c1)C2` [Compound 56i, (S)-5-((2-Nitro-6,7-dihydro-5H-imidazo[2,1-b][1,3]oxazin-6-ylamino)methyl)-2-(trifluoromethoxy)-phenol], in data set [4], the “in vivo clearance” value is reported as “cleared more rapidly” and the “systemic exposure” value is listed as “low systemic exposure”.

For `O=[N+]([O-])c1cn2c(n1)OC[C@@H](NCc1ccc(OC(F)(F)F)cc1F)C2` [Compound 41a, (S)-N-(2-Fluoro-4-(trifluoromethoxy)benzyl)-2-nitro-6,7-dihydro-5H-imidazo[2,1-b][1,3]oxazin-6-amine], the “Predicted hepatic extraction ratio” value in data set [3] is given as 81%. The MIC99 in data set [1] turned out to be 0.13 ± 0.06 µM (≈ 0.0489 µg/mL).

As to `CN(Cc1ccc(OC(F)(F)F)cc1)[C@@H]1COc2nc([N+](=O)[O-])cn2C1` [Compound 5a, (S)-N-Methyl-2-nitro-N-4-trifluoromethoxybenzyl-6,7-dihydro-5H-imidazo[2,1-b][1,3]oxazin-6-amine], in data set [3], the “Predicted hepatic extraction ratio” value is 85%.

As for `O=[N+]([O-])c1cn2c(n1)OC[C@@H](NCc1ccc(OC(F)(F)F)c(Cl)c1)C2` [Compound 56b, (S)-N-(3-Chloro-4-trifluoromethoxybenzyl)-2-nitro-6,7-dihydro-5H-imidazo[2,1-b][1,3]oxazin-6-amine], in data set [4], the “in vivo clearance” value was “low to moderate clearance” and the “systemic exposure” value is given as “good systemic exposure”.

In the case of `CCC(=O)N(Cc1ccc(OC(F)(F)F)cc1)[C@@H]1COc2nc([N+](=O)[O-])cn2C1` [Compound 4b, (S)-N-(2-Nitro-6,7-dihydro-5H-imidazo[2,1-b][1,3]oxazin-6-yl)-N-(4-trifluoromethoxybenzyl)-propionamide], in data set [1], the “Mtb MIC99 μM (±SD)” value is listed as “Insoluble”.

On to `O=[N+]([O-])c1cn2c(n1)OC[C@@H](NCc1ccc(OC(F)(F)F)cc1O)C2` [Compound 32g, (S)-2-((2-Nitro-6,7-dihydro-5H-imidazo[2,1-b][1,3]oxazin-6-ylamino)methyl)-5-trifluoromethoxyphenol], for which, in data set [3], the “Predicted hepatic extraction ratio” value is on record as 81%.

As for `O=[N+]([O-])c1cn2c(n1)OC[C@@H](NCc1ccc(OC(F)(F)F)c(F)c1)C2` [Compound 56a, (S)-N-(3-Fluoro-4-trifluoromethoxybenzyl)-2-nitro-6,7-dihydro-5H-imidazo[2,1-b][1,3]oxazin-6-amine], the “Predicted hepatic extraction ratio” value in data set [3] was 72%. Besides, in data set [4], the “in vivo clearance” value is on record as “low to moderate clearance” and the “systemic exposure” value is on record as “good systemic exposure”.

As for `CC(C)N(Cc1ccc(OC(F)(F)F)cc1)[C@@H]1COc2nc([N+](=O)[O-])cn2C1` [Compound 5c, (S)-N-Isopropyl-2-nitro-N-(4-trifluoromethoxybenzyl)-6,7-dihydro-5H-imidazo[2,1-b][1,3]oxazin-6-amine], in data set [3], the “Predicted hepatic extraction ratio” value is listed as 95%.

Turning to `O=[N+]([O-])c1cn2c(n1)OC[C@@H](NCc1ccc(OC(F)(F)F)cc1Oc1ccccc1)C2` [Compound 32d, (S)-2-Nitro-N-(2-phenoxy-4-trifluoromethoxybenzyl)-6,7-dihydro-5H-imidazo[2,1-b][1,3]oxazin-6-amine], the “Predicted hepatic extraction ratio” value in data set [3] was 90%.

Broadly, the MIC99 is an inhibitory concentration at the 99% level, which refers to growth in some studies and to a panel of isolates in others.
